Measured values taken from the supplement of paper PMC11208160.

experiment: recombinant UMI read abundance after kanamycin selection (control-corrected) (log10(CPM+1)); higher = more efficient recombination; extreme values may be limits of the assay; sequences stand for … in AGTGCAGAGAAAATCGGCCAGTTTTCTCTGCCTGCAGTCCGCATGCCGTGGGACCCCTTGGGTTCTAACCTGTTGCCTAGATTTATGCAGCGGACTGCCTTTCTCCCAAAGTGATAAACCGG…AGGTTGGTTTCACT; site = the 11-nt donor
How it was run: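 Under IPTG (0.07 mM) plus kanamycin, or without selection, Escherichia coli carrying a UMI-tagged donor and donor-binding-loop pair library and a target plasmid for the IS621 bridge recombinase were plated in two replicates. Recombinant UMIs were PCR-amplified across the donor–target junction and sequenced. Counts were converted to CPM, averaged over replicates, scaled by control-derived factors and reported as log10(CPM+1).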
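Further: IS621 bridge recombinase in Escherichia coli cells against a fixed T5 target plasmid.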

Sequence	recombinant UMI read abundance (log10)
AGTCCACCATGGACCGGTTTTCCCGGTAATCCGTATTTGGG (site AGTCCACCTCC)	0.00962
AGCTCAGCATGGACCGGTTTTCCCGGTAATCCGTATTTGGC (site AGCTCAGCTTC)	0.398
TACTTGACATGGACCGGTTTTCCCGGTAATCCGTATTTGCT (site TACTTGACTAT)	0.00796
GCTAAAACATGGACCGGTTTTCCCGGTAATCCGTATTTGCT (site GCAAAAACTAG)	0
TCTTACTCATGGACCGGTTTTCCCGGTAATCCGTATTTGCA (site TCTTACTCTTG)	0.535
CATGGCCCATGGACCGGTTTTCCCGGTAATCCGTATTTGTT (site CAAGGCCCTAA)	0.0112
GTTGGGCCATGGACCGGTTTTCCCGGTAATCCGTATTTGAT (site GTTGGGCCTAT)	0.00591
AGCCTTTCATGGACCGGTTTTCCCGGTAATCCGTATTTGAG (site AGCCTTTCTCT)	0
CCTAAGGCATGGACCGGTTTTCCCGGTAATCCGTATTTGAT (site CCTAAGGCTAT)	0.0186
ACACATCCATGGACCGGTTTTCCCGGTAATCCGTATTTGCC (site ACACATCCTGG)	1.79
ACTGAATCATGGACCGGTTTTCCCGGTAATCCGTATTTGCC (site ACTGAATCTGG)	2.1
TTTGGGGCATGGACCGGTTTTCCCGGTAATCCGTATTTGCT (site TTTGTGGCTAG)	0.0107
AGATCATCATGGACCGGTTTTCCCGGTAATCCGTATTTGCA (site AGATCATCTTG)	2.25
ATGGAGGCATGGACCGGTTTTCCCGGTAATCCGTATTTGGC (site ATGTAGGCTGC)	1.48
CGGAATTCATGGACCGGTTTTCCCGGTAATCCGTATTTGTT (site CGGAATCCTAA)	0.0141
CTTGTGTCATGGACCGGTTTTCCCGGTAATCCGTATTTGTG (site CTTGTGTCTCA)	2.16
GATTGGACATGGACCGGTTTTCCCGGTAATCCGTATTTGTC (site GATTGGACTGT)	0.172
GGCCACCCATGGACCGGTTTTCCCGGTAATCCGTATTTGCT (site GGCCACCCTAT)	0.00294
CTTTGGGCATGGACCGGTTTTCCCGGTAATCCGTATTTGCC (site CTTTGGGCTGG)	0

Sequence	recombinant UMI read abundance (log10)
TGGCCGGCATGGACCGGTTTTCCCGGTAATCCGTATTTGGA (site TGGCCGGCTTC)	0.0151
CACGGCCCATGGACCGGTTTTCCCGGTAATCCGTATTTGTT (site CACAGCCCTAA)	0.215
GTTGTTCCATGGACCGGTTTTCCCGGTAATCCGTATTTGGT (site GTTGTTTCTAC)	0
TTACTGACATGGACCGGTTTTCCCGGTAATCCGTATTTGCC (site GGTTATCCTTC)	0.00491
TAGCTAGCATGGACCGGTTTTCCCGGTAATCCGTATTTGAC (site TAGCTAGCTGT)	2.34
GAAGCGCCATGGACCGGTTTTCCCGGTAATCCGTATTTGTG (site AAAGCGCCTCA)	0.00334
GGGAAGACATGGACCGGTTTTCCCGGTAATCCGTATTTGGC (site GGGAAGACTGC)	1.57
GTTGTTCCATGGACCGGTTTTCCCGGTAATCCGTATTTGGT (site GTTGTTCCTAG)	0
CAGTCCACATGGACCGGTTTTCCCGGTAATCCGTATTTGGG (site CAGTCGACTCC)	0.024
GGCCAACCATGGACCGGTTTTCCCGGTAATCCGTATTTGTT (site GGCCACCCTAA)	0.0125
TGAGGACCATGGACCGGTTTTCCCGGTAATCCGTATTTGGG (site TGAGGACCTCC)	0.0291
ATTGAGACATGGACCGGTTTTCCCGGTAATCCGTATTTGGT (site ATTGACACTAC)	0.0545
AATGTAACATGGACCGGTTTTCCCGGTAATCCGTATTTGGT (site AATGTAACTAT)	0.468
TGATCGACATGGACCGGTTTTCCCGGTAATCCGTATTTGTT (site AGATCGACTAA)	0.0146
CCGTTAGCATGGACCGGTTTTCCCGGTAATCCGTATTTGTT (site CCGTTAGCTTA)	0.00339
TCACGACCATGGACCGGTTTTCCCGGTAATCCGTATTTGTG (site TCACGACCTCA)	0.0189
TAGACTACATGGACCGGTTTTCCCGGTAATCCGTATTTGCA (site TAGACTACTTG)	1.62
ACCGATCCATGGACCGGTTTTCCCGGTAATCCGTATTTGCA (site ACCGATCCTTG)	0.164
